# Laboratory results published in patent US10844058B2, “Valbenazine salts and polymorphs thereof” (Neurocrine Biosciences, Inc., priority 2015, dated 2020).
# Like-named read-outs stand apart in the source and are kept apart here.
# Experiments:
# Type in all cases: physicochemical
# [1] = Gravimetric vapour sorption (GVS)
# Protocol: The Gravimetric sorption isotherms were obtained using a Hiden IGASorp moisture sorption analyser, controlled by CFRSorp software. The sample temperature was maintained at 25° C. by a Huber re-circulating water bath. The humidity was controlled by mixing streams of dry and wet nitrogen, with a total flow rate of 250 ml/min. The relative humidity (RH) was measured by a calibrated Vaisala RH probe (dynamic range of 0-95% RH), located near the sample. The weight change, (mass relaxation) of the sample as a function of % RH was constantly monitored by the microbalance (accuracy 0.001 mg). Typically 10-20 mg of sample was placed in a tared mesh stainless steel basket at room temperature. The sample was loaded and unloaded at 40% RH and 25° C. (typical room conditions). The standard isotherm was performed at 25° C. at 10% RH intervals over a 0-90% RH range.
# [2] = Stability to humidity on storage (form by XRPD)
# [3] = Solubility of Form I in organic solvents by HPLC (Example 4); conditions: 22 °C, thermodynamic from solid
# Protocol: (§1) The vials were shaken. After 1 hr, a sample (˜0.5 ml) was removed via syringe, and filtered through a syringe filter (0.2 micron) into a second vial. 200 μl of each solution was then transferred into an HPLC vial and made up to 1 ml by adding 800 μl of diluent. These samples were analyzed directly by HPLC, and the response was outside the linearity range. Therefore a second dilution was performed, taking 0.1 ml of each sample and making up to 2 ml with diluent. The samples were re-analyzed by HPLC. Then after shaking the suspensions for 18 hours in total, a second sample was taken as above. All samples were then diluted and analyzed by HPLC, as above. The temperature was noted (22° C.), and no gelling was observed.
# The above procedure was repeated but using 8 different organic solvents in place of the aqueous media (analysis only after 18 hrs). Solvents used were acetonitrile, diethyl ether, ethanol, ethyl acetate, isopropanol, methanol, heptane and THF. All solvents gave suspensions at 100 mg/ml, except methanol which dissolved at 100 mg in 0.3 ml. […] These experiments were sampled once after 18 hours of slurrying.
# [4] = Long-term and accelerated stability studies of Form I (Example 6)
# Protocol: The storage conditions include the long-term storage condition of 25±2° C./60±5% RH, the intermediate storage condition of 30±2° C./65±5% RH, and the accelerated storage condition of 40±±2° C./75±±5% RH.
# [5] = Thermodynamic aqueous solubility; conditions: water, 25 °C, water, thermodynamic from solid, water, 25° C., 24 hours; at the pH of the next column; read-out: Aqueous solubility mg/mL free form
# Protocol: The suspension was equilibrated at 25° C. for 24 hours then the pH was measured. The suspension was then filtered through a glass fibre C filter. […] Different volumes of the standard, diluted and undiluted sample solutions were injected.
# [6] = Solubility of Formula I Form I in solvents, gravimetric analysis of mother liquors (Example 1); conditions: organic solvent or mixture, thermodynamic from solid
# Protocol: The solubility was calculated by gravimetric analysis after evaporation of the mother liquors collected.
# [7] = Solubility of Form I in aqueous media by HPLC (Example 4); conditions: thermodynamic from solid, 22° C.
# Protocol: as §1
# [8] = aqueous media, aqueous buffer, Aqueous pH 6.8
# [9] = aqueous media, simulated gastric fluid, Aqueous pH 1.2
# [10] = aqueous medium, aqueous buffer, Aqueous pH 4
# [11] = aqueous medium, aqueous buffer, Aqueous pH 5
structure (smiles),measurement,setting,value
"COc1cc2c(cc1OC)[C@H]1C[C@@H](OC(=O)[C@@H](N)C(C)C)[C@H](CC(C)C)CN1CC2.Cc1ccc(S(=O)(=O)O)cc1.Cc1ccc(S(=O)(=O)O)cc1 [Form I, (S)-(2R,3R,11bR)-3-isobutyl-9,10-dimethoxy-2,3,4,6,7,11b-hexahydro-1H-pyrido[2,1-a]isoquinolin-2-yl 2-amino-3-methylbutanoate di(4-methylbenzenesulfonate)]",Stability to humidity GVS uptake,[1]; 25° C.,1.0%
same,GVS mass increase,"[1]; relative humidity from about 0% to about 95%, di(4-methylbenzenesulfonate)",less than 1%
same,Stability to humidity 25° C./92% RH,[2]; 25° C./92% RH,unchanged
same,Stability to humidity 40° C./75% RH,[2]; 40° C./75% RH,unchanged
same,solubility at 18 h,"[3]; organic solvent or mixture, Acetonitrile",1.36 mg/mL
same,solubility at 18 h,"[3]; organic solvent or mixture, Diethyl ether",0.01 mg/mL
same,solubility at 18 h,"[3]; organic solvent or mixture, Ethanol",35.5 mg/mL
same,solubility at 18 h,"[3]; organic solvent or mixture, Ethyl acetate",0.04 mg/mL
same,solubility at 18 h,"[3]; organic solvent or mixture, Heptane",0.003 mg/mL
same,solubility at 18 h,"[3]; organic solvent or mixture, Isopropanol",1.15 mg/mL
same,solubility at 18 h,"[3]; organic solvent or mixture, Methanol",481 mg/mL
same,solubility at 18 h,"[3]; organic solvent or mixture, THF",0.05 mg/mL
same,solubility at 18 h,[3]; Water,28.2 mg/mL
same,Stability on storage,[4]; about 25° C. and about 60% relative humidity for about 24 months,stable
same,Stability on storage,[4]; about 40° C. and about 75% relative humidity for about 6 months,stable
same,Stability on storage,"[4]; accelerated storage condition 40° C./75% RH, 3 months",chemical and physical stability
same,Stability on storage,"[4]; long-term storage condition 25° C./60% RH, up to 3 months",chemical and physical stability
same,solubility at 24 h,[5],15 mg/mL
same,solubility,"[6]; 55 °C, MeOH (boiling point 65), 10° C. below reflux, read-out: Solubility at high temperature",> 250 mg/mL
same,solubility,"[6]; 56 °C, THF (boiling point 66), 10° C. below reflux, read-out: Solubility at high temperature",6 mg/mL
same,solubility,"[6]; 67 °C, Ethyl Acetate (boiling point 77), 10° C. below reflux, read-out: Solubility at high temperature",2 mg/mL
same,solubility,"[6]; 68 °C, EtOH (boiling point 78), 10° C. below reflux, read-out: Solubility at high temperature",212 mg/mL
same,solubility,"[6]; 70 °C, MEK (boiling point 80), 10° C. below reflux, read-out: Solubility at high temperature",4 mg/mL
same,solubility,"[6]; 71 °C, Acetonitrile (boiling point 81), 10° C. below reflux, read-out: Solubility at high temperature",48 mg/mL
same,solubility,"[6]; 79 °C, IPA (boiling point 89), 10° C. below reflux, read-out: Solubility at high temperature",22 mg/mL
same,solubility,"[6]; 79 °C, Isopropyl Acetate (boiling point 89), 10° C. below reflux, read-out: Solubility at high temperature",4 mg/mL
same,solubility,"[6]; 88 °C, 1-propanol (boiling point 98), 10° C. below reflux, read-out: Solubility at high temperature",160 mg/mL
same,solubility,"[6]; 107 °C, MIBK (boiling point 117), 10° C. below reflux, read-out: Solubility at high temperature",5 mg/mL
same,solubility,"[6]; 1-propanol, 5° C., read-out: Solubility at 5° C. temperature",8 mg/mL
same,solubility,"[6]; Acetone, 5° C., read-out: Solubility at 5° C. temperature",5 mg/mL
same,solubility,"[6]; Acetonitrile, 5° C., read-out: Solubility at 5° C. temperature",17 mg/mL
same,solubility,"[6]; EtOH, 5° C., read-out: Solubility at 5° C. temperature",24 mg/mL
same,solubility,"[6]; Ethyl Acetate, 5° C., read-out: Solubility at 5° C. temperature",1 mg/mL
same,solubility,"[6]; IPA, 5° C., read-out: Solubility at 5° C. temperature",5 mg/mL
same,solubility,"[6]; Isopropyl Acetate, 5° C., read-out: Solubility at 5° C. temperature",4 mg/mL
same,solubility,"[6]; MEK, 5° C., read-out: Solubility at 5° C. temperature",3 mg/mL
same,solubility,"[6]; MIBK, 5° C., read-out: Solubility at 5° C. temperature",6 mg/mL
same,solubility,"[6]; MeOH, 5° C., read-out: Solubility at 5° C. temperature",> 250 mg/mL
same,solubility,"[6]; THF, 5° C., read-out: Solubility at 5° C. temperature",4 mg/mL
same,solubility at 1 h,"[7]; aqueous media, aqueous buffer, Aqueous pH 3",28.4 mg/mL
same,solubility at 1 h,[7]; [8],34 mg/mL
same,solubility at 18 h,[7]; [8],35.4 mg/mL
same,solubility at 1 h,[7]; [9],31.6 mg/mL
same,solubility at 18 h,[7]; [9],33.2 mg/mL
same,solubility at 18 h,"[7]; aqueous medium, aqueous buffer, Aqueous pH 3",28 mg/mL
same,solubility at 1 h,[7]; [10],28.1 mg/mL
same,solubility at 18 h,[7]; [10],27.8 mg/mL
same,solubility at 1 h,[7]; [11],18.6 mg/mL
same,solubility at 18 h,[7]; [11],27.9 mg/mL
